Holding throughout (assay): Minimum inhibitory concentration
Holding throughout (format): cell-based
Holding throughout (settings): at pH 5.5, 1% solution

For assay [1], the system named is Candida glabrata ATCC 66032. The source says: (§1) These gentle antimicrobials are well-established in personal care industry for their skin and scalp care benefits that stem from their broad range of antimicrobial activity. These are mostly deployed in a variety of ‘liquid’ wash formulations (body wash/hair wash) and sometimes in ‘leave-on’ creams and lotions (anti-acne). […] These two lipidated glycines, alone as well as when combined together, show remarkable activity against Candida albicans and Candida glabrata yeast (vaginal candidiasis, the yeast infection) and Gardnerella vaginalis (a Gram-variable bacterium that is a causative microbe for bacterial vaginosis). […] These two N-acyl glycines, akin to skin fatty acids, are devoid of any structural feature, like halogen atom or a heterocycle, that can be a potential hazard to the environment and living systems. […] The N-acyl glycine alone or in combination can be used up to 4.0% by weight of the total composition. The traditional environmentally toxic chlorinated antimicrobials for cleansing hygiene bars such as Chlorhexidne, Triclosan, Chloroxylenol, Climbazole, Triclocarban (banned in 2017) or other traditional anti-dandruff (antifungal) agents like Climbazole or Octopirox (monoethanol amine salt of piroctone), Zinc pyrithion (now banned in EU) etc. generate unsalvageable waste at every step of the multistep syntheses. In contrast to the facts (hazardous synthesis and toxicity) of traditional antimicrobials for solid cleansers, the lipidated glycines, that are part of solid compositions of the present invention, are manufactured by green chemistry without generating any unsalvageable/non-disposable waste as taught by IN patent 362888. Also, it is to be noted that N-acyl glycines are biodegradable and environmentally benign. These two lipidated glycines (Formula I and Formula II) are organic acids and by adding them in the second stage of processing when the mass of the first stage is being kneaded with limited amount of water in a sigma blender, helps to achieve the desired pH of the final solid cleanser. pH of the final solid cleanser can be brought down from 6.0 to 4.0 by incorporating these acyl glycines at an amount of about 0.5% to 4.0% of the total composition. The two N-acyl glycines can be used individually or in a combination. Examples 1 to 9 deploy either N-capryloyl glycine or N-undecylenoyl glycine, however, Example 10 to 13 use both of N-capryloyl glycine and N-undecylenoyl glycine. Higher % of capryloyl glycine (around 3.0% of the total composition) results in lower pH that is intended for anti-acne or feminine intimate hygiene wash as exemplified in Example 3. Minimum inhibitory concentrations of capryloyl glycine (CG) and undecylenoyl glycine (UG) and their combination (CG-UG) in 1:1 molar ratio using 1% solution at pH 5.5 are given in Table 1. […] The MIC numbers (less than 0.1%) for the N-acyl glycines against Gardnerella bacterium are extremely good. […] The preferred antimicrobials for the solid cleansers of the present invention are the combination of N-capryloyl glycine and N-undecylenoyl glycine in the molar ratio of 1:1.

Assay [2] has as its system Malassezia furfur ATCC 14521.
Description: as §1

The test system of assay [3] is Escherichia coli ATCC 8739.
Description: as §1

The subject of assay [4] is Aspergillus niger ATCC 16404.
Description: as §1

For assay [5], the system named is Corynebacterium xerosis ATCC 373.
Description: as §1

For assay [6], the system named is Candida albicans ATCC 10231.
Description: as §1

The subject of assay [7] is Staphylococcus epidermidis NCIM 2493.
Description: as §1

Assay [8] concerns Propionibacterium acnes MTCC 1951.
Description: as §1

In assay [9] the test system is Malassezia restricta ATCC MYA 4611.
Description: as §1

Assay [10] has as its system Gardnerella vaginalis ATCC 14018.
Description: as §1

In assay [11] the test system is Pseudomonas aeruginosa ATCC 15442.
Description: as §1

The test system of assay [12] is Micrococcus luteus NCIM 2103.
Description: as §1

Assay [13] has as its system Burkholderia cepacia ATCC 25416.
Description: as §1

Assay [14] has as its system Staphylococcus aureus ATCC 6538.
Description: as §1

Assay [15] has as its system Staphylococcus hominis MTCC 8980.
Description: as §1

Each structure is given as a SMILES string.

For `CCCCCCCC(=O)NCC(=O)O` [CG, N-capryloyl glycine], the “Minimum Inhibitory Concentration” value worked out at 1% in assay [1]; 0.5% in assay [2]; 0.7% in [3]; 1% in assay [4]; 1. % in assay [5]; 0.6% in assay [6]. Further, the “Minimum Inhibitory Concentration” value was 1% in assay [7]; 1% in [8]; 0.4% in assay [9]; 0.09% in assay [10]; 1% in assay [11]; 1% in assay [12]. The “Minimum Inhibitory Concentration” value is given as 1% in assay [13], 1% in assay [14] and 0.3% in [15].

With `C=CCCCCCCCCC(=O)NCC(=O)O` [UG, N-undecylenoyl glycine], the “Minimum Inhibitory Concentration” value is on record as 0.9% in assay [1]; 0.5% in assay [2]; 0.9% in assay [3]; 1% in [4]; 0.7% in assay [5]; 1% in [6]. Further, the “Minimum Inhibitory Concentration” value in assay [7] is 0.4%; in [8], 1%; in assay [9], 0.4%; in assay [10], 0.06%; in [11], 1%; in assay [12], 0.5%. Besides, the “Minimum Inhibitory Concentration” value in assay [13] is 1%; in assay [14] it was 0.6%; in [15] it was 0.2%.

The values above are taken from US20250127699A1, “One Pot Process for Preparing 'Grit-Free' Solid Cleansing Compositions” (GALAXY SURFACTANTS LTD., priority 2023, published 2025).
